In ChEMBL document CHEMBL5360591, “Licochalcone A Derivatives as Selective Dipeptidyl Peptidase 4 Inhibitors with Anti-Inflammatory Effects” (J Nat Prod, 2023):
Blank lines part the entries; values can stand above or below the compound they belong to. Activity calls are given as the source filed them. No cut-off for these calls is given here.

What was measured:
Dipeptidyl peptidase 4 [1] = molecular target: T1, Dipeptidyl peptidase 4 (Homo sapiens, UniProt P27487); assay: Inhibition of DPP4 in human plasma using GP-BAN as fluorescent substrate preincubated for 5 mins followed by substrate addition and measured for 20 mins by microplate reader analysis; assay type: cell-free
Target sequence in this assay (P27487 whole entry): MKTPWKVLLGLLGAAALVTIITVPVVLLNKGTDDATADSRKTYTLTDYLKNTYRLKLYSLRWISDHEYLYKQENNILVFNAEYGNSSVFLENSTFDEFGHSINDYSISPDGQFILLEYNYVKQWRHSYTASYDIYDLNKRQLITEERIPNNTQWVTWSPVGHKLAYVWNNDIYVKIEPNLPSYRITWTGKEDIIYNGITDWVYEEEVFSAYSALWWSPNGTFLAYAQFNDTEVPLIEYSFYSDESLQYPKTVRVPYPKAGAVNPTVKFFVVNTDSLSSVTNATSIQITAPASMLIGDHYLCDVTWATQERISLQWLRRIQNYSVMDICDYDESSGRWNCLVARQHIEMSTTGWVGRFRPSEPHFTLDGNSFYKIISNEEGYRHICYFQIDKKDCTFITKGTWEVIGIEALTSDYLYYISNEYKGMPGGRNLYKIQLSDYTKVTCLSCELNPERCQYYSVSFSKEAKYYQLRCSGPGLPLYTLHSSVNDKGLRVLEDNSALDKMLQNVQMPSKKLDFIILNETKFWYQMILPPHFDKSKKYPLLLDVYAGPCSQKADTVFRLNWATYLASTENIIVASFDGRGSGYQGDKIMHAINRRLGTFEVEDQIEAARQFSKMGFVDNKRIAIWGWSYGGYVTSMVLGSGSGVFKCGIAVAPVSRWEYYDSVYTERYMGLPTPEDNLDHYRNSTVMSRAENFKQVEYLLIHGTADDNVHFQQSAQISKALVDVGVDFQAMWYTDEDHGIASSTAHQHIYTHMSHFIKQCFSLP

Dipeptidyl peptidase 4 [2] = molecular target: T1, Dipeptidyl peptidase 4; assay: Mixed type inhibition of DPP4 (unknown origin) using varying concentrations of GP-BAN as substrate assessed as inhibition constant
Target sequence in this assay (P27487 whole entry): as above

[3] = Metabolic stability in human liver microsomes assessed as UDPGA-dependent drug metabolism by measuring half life at 10 uM preincubated for 3 mins followed by UDPGA addition measured for 90 mins by LC-UV analysis; assay type: ADME, Microsome; conditions: time 93 min
RAW264.7 [4] = assay: Anti-inflammatory activity in mouse RAW264.7 cells assessed as downregulation of LPS-stimulated TNF-alpha mRNA expression at 20 to 100 uM preincubated for 4 hrs followed by LPS-stimulation for 24 hrs by qPCR analysis; assay type: functional, cell-based; conditions: dose 20-100 µM, time 28.0 hrs
RAW264.7 [5] = assay: Anti-inflammatory activity in mouse RAW264.7 cells assessed as downregulation of LPS-stimulated IL-1beta mRNA expression at 20 to 100 uM preincubated for 4 hrs followed by LPS-stimulation for 24 hrs by qPCR analysis; assay type: functional, cell-based; conditions: dose 20-100 µM, time 28.0 hrs
RAW264.7 [6] = assay: Anti-inflammatory activity in mouse RAW264.7 cells assessed as downregulation of LPS-stimulated IL-6 mRNA expression at 20 to 100 uM preincubated for 4 hrs followed by LPS-stimulation for 24 hrs by qPCR analysis; assay type: functional, cell-based; conditions: dose 20-100 µM, time 28.0 hrs
RAW264.7 [7] = assay: Cytotoxicity against mouse RAW264.7 cells assessed as cell growth inhibition incubated for 48 hrs by CCK-8 assay; assay type: toxicity, cell-based; conditions: raw264.7, 48 h
RPTEC = assay: Cytotoxicity against human RPTEC cells assessed as cell growth inhibition incubated for 48 hrs by CCK-8 assay; assay type: toxicity, cell-based
Dipeptidyl peptidase 4 [8] = molecular target: T1, Dipeptidyl peptidase 4; assay: Inhibition of DPP4 in human HepG2 cells using GP-BAN as substrate assessed reduction of reduction in substrate hydrolysis at 20 uM incubated for 30 mins by Hoechst 33342 staining based assay; assay type: cell-based
Target sequence in this assay (P27487 whole entry, looked up): as the sequence (P27487 whole entry) above

Dipeptidyl peptidase 4 [9] = molecular target: T1, Dipeptidyl peptidase 4; assay: Inhibition of DPP4 in human Caco-2 cells using GP-BAN as substrate assessed reduction of reduction in substrate hydrolysis at 20 uM incubated for 30 mins by Hoechst 33342 staining based assay; assay type: cell-based
Target sequence in this assay (P27487 whole entry, looked up): as the sequence (P27487 whole entry) above

[10] = Stability of the compound in artificial gastric fluid at 10 uM incubated for 90 mins by LC-UV analysis; assay type: ADME; conditions: simulated gi fluid, 1.5 h
[11] = Stability of the compound in artificial intestinal fluid at 10 uM incubated for 90 mins by LC-UV analysis; assay type: ADME; conditions: simulated gi fluid, 1.5 h
[12] = Metabolic stability in human liver microsomes assessed as […] drug metabolism by measuring half life at 10 uM preincubated for 3 mins followed by NADPH addition measured for 90 mins by LC-UV analysis; assay type: ADME, Microsome; conditions: time 93 min
Prolyl endopeptidase FAP = molecular target: T2, Prolyl endopeptidase FAP (Homo sapiens, UniProt Q12884); assay: Inhibition of recombinant human FAP using Z-GP-AMC as substrate preincubated for 5 mins followed by substrate addition and measured after 20 mins by microplate reader analysis
T2 sequence (Q12884 whole entry): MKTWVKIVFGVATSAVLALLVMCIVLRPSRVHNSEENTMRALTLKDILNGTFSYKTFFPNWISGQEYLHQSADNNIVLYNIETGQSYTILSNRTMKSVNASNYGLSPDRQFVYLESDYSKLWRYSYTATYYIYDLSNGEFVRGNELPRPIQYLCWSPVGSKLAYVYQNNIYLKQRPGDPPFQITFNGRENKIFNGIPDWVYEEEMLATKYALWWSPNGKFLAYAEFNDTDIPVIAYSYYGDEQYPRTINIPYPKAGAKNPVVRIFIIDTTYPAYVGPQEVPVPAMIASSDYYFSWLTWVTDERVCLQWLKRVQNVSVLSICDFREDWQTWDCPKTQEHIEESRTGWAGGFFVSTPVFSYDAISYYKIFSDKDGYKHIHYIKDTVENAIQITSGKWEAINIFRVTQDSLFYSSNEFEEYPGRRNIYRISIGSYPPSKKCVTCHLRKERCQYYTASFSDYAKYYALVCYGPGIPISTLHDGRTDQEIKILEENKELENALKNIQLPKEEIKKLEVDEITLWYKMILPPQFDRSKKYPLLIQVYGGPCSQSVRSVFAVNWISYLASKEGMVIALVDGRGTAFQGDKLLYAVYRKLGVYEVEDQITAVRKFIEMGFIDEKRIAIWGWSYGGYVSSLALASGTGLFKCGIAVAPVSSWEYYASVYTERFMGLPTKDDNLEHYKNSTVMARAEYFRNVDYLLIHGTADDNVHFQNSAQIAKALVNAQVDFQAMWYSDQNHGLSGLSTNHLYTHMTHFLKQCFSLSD

Prothrombin = Prothrombin (Homo sapiens, UniProt P00734); assay: Inhibition of recombinant thrombin in human plasma using […] as substrate preincubated for 3 mins followed by substrate addition and measured for 30 mins by microplate reader analysis; assay type: cell-free
Dipeptidyl peptidase 9 = Dipeptidyl peptidase 9 (Homo sapiens, UniProt Q86TI2); assay: Inhibition of recombinant human DPP9 using Z-GP-AMC as substrate preincubated for 5 mins followed by substrate addition and measured after 20 mins by microplate reader analysis
Prolyl endopeptidase = molecular target: T3, Prolyl endopeptidase (Homo sapiens, UniProt P48147); assay: Inhibition of recombinant human PREP using Z-GP-AMC as substrate preincubated for 5 mins followed by substrate addition and measured after 20 mins by microplate reader analysis
T3 sequence (P48147 whole entry): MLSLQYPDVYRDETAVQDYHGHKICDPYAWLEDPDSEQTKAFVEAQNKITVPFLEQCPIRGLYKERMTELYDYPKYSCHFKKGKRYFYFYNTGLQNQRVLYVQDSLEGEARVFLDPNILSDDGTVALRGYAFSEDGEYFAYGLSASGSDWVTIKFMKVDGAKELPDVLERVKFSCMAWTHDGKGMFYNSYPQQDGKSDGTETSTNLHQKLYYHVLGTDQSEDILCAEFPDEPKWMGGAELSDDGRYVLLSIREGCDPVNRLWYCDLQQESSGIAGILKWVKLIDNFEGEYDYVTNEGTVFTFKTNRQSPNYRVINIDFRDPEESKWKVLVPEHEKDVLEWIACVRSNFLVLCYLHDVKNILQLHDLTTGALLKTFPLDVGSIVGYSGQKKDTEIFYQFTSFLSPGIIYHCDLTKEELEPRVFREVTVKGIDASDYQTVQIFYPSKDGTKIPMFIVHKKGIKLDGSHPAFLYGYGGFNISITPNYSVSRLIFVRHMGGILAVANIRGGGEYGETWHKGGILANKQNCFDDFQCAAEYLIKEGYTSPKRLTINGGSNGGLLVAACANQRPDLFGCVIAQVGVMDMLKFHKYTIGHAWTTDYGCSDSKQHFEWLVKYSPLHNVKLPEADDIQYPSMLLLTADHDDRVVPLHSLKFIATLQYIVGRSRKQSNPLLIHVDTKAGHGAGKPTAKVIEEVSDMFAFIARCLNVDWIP

Dipeptidyl peptidase 4 [13] = molecular target: T1, Dipeptidyl peptidase 4; assay: Inhibition of recombinant human DPP4 using GP-BAN as substrate preincubated for 5 mins followed by substrate addition and measured after 20 mins by microplate reader analysis
Target sequence in this assay (P27487 whole entry): as the sequence (P27487 whole entry) above

Homo sapiens [14] = organism: Homo sapiens; assay: Selectivity index, ratio of IC50 for inhibition of recombinant human DPP9 to IC50 for inhibition of recombinant human DPP4
Homo sapiens [15] = organism: Homo sapiens; assay: Selectivity index, ratio of IC50 for inhibition of recombinant human PREP to IC50 for inhibition of recombinant human DPP4

Chain of Dipeptidyl peptidase 9 (Q86TI2 whole entry): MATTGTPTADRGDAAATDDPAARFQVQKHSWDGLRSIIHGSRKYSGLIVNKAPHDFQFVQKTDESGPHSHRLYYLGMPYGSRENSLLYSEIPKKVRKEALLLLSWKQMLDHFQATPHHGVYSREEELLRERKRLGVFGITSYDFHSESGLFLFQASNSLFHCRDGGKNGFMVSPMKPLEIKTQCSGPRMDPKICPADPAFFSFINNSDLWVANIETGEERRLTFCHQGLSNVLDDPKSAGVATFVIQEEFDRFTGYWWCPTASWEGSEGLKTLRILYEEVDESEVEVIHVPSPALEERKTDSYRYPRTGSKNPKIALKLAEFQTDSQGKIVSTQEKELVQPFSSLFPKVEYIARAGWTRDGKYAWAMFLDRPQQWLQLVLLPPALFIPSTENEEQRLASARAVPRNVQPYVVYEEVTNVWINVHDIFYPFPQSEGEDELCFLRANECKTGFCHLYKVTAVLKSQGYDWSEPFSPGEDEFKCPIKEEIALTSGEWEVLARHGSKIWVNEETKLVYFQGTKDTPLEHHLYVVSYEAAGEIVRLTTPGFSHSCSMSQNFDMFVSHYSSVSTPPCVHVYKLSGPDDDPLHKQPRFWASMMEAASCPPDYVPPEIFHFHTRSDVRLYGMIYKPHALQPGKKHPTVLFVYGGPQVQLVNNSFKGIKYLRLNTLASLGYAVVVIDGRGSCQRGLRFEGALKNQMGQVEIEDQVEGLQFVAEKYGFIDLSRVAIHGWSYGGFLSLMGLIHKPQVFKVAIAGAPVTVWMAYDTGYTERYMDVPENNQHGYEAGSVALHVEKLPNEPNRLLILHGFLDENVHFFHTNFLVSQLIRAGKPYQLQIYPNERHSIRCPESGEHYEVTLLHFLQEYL

Compound: CCOc1ccc(C(=O)/C=C/c2cc(Cl)c(OC)cc2OC)cc1
IC50 (Dipeptidyl peptidase 4 [1]): > 100 µM

Compound: COc1cc(C(=O)/C=C/c2cc(Cl)c(O)cc2OC)ccc1O
IC50 (Dipeptidyl peptidase 4 [1]): 31.9 µM

Compound: C=CC(C)(C)c1cc(/C=C/C(=O)c2ccc(O)cc2)c(OC)cc1O [LICOAGROCHACONE A]
IC50 (Dipeptidyl peptidase 4 [1]): 30.4 µM

Compound: COc1cc(O)c(Cl)cc1/C=C/C(=O)c1cccc(O)c1
IC50 (Dipeptidyl peptidase 4 [1]): 6.43 µM
Ki (Dipeptidyl peptidase 4 [2]): 17.4 µM

Compound: CCCOc1ccc(C(=O)/C=C/c2cc(Br)c(O)cc2OC)cc1
IC50 (Dipeptidyl peptidase 4 [1]): 26.5 µM

Compound: COc1cc(O)c(Br)cc1/C=C/C(=O)c1ccc(O)cc1
IC50 (Dipeptidyl peptidase 4 [1]): 16.4 µM

Compound: COc1cc(O)c(Cl)cc1/C=C/C(=O)c1ccc(O)c(O)c1
IC50 (Dipeptidyl peptidase 4 [1]): 8.86 µM
Ki (Dipeptidyl peptidase 4 [2]): 11.1 µM

Compound: CCOc1ccc(C(=O)/C=C/c2cc(Br)c(O)cc2OC)cc1
IC50 (Dipeptidyl peptidase 4 [1]): 35 µM

Compound: O=c1ccc2ccc(O)cc2o1 [UMBELLIFERONE]
half-life at 10 µM [3]: 17.1 min

Compound: N[C@@H](CC(=O)N1CCn2c(nnc2C(F)(F)F)C1)Cc1cc(F)c(F)cc1F
Activity (RAW264.7 [4]): Active
Activity (RAW264.7 [5]): Active
Activity (RAW264.7 [6]): Active

Compound: CCCOc1ccc(C(=O)/C=C/c2cc(Cl)c(OC)cc2OC)cc1
IC50 (Dipeptidyl peptidase 4 [1]): > 100 µM

Compound: C[C@@H]1C[C@H]2[C@@H]3CCC4=CC(=O)C=C[C@]4(C)[C@@]3(F)[C@@H](O)C[C@]2(C)[C@@]1(O)C(=O)CO
Activity (RAW264.7 [4]): Active
Activity (RAW264.7 [5]): Active
Activity (RAW264.7 [6]): Active

Compound: COc1cc(O)c(Cl)cc1/C=C/C(=O)c1ccc(O)c(C)c1
IC50 (Dipeptidyl peptidase 4 [1]): 15.1 µM

Compound: COc1ccc(C(=O)/C=C/c2cc(Cl)c(O)cc2OC)cc1O
IC50 (Dipeptidyl peptidase 4 [1]): 9.09 µM
Ki (Dipeptidyl peptidase 4 [2]): 23.1 µM

Compound: CCCCOc1ccc(C(=O)/C=C/c2cc(Br)c(O)cc2OC)cc1
IC50 (Dipeptidyl peptidase 4 [1]): > 100 µM

Compound: O=c1c(O)c(-c2ccc(O)cc2)oc2cc(O)cc(O)c12 [KAEMPFEROL]
IC50 (Dipeptidyl peptidase 4 [1]): 6.67 µM
Ki (Dipeptidyl peptidase 4 [2]): 14.4 µM

Compound: COc1cc(O)c(Cl)cc1/C=C/C(=O)c1ccc(C(F)(F)F)cc1
IC50 (Dipeptidyl peptidase 4 [1]): 12.6 µM

Compound: COc1cc(O)c(Cl)cc1/C=C/C(=O)c1ccc(O)c([N+](=O)[O-])c1
IC50 (Dipeptidyl peptidase 4 [1]): 4.27 µM
Ki (Dipeptidyl peptidase 4 [2]): 0.96 µM
Stability [10]: Stable
Stability [11]: Stable
half-life at 10 µM [3]: 25.4 min
half-life at 10 µM [12]: 197 min
IC50 (Prolyl endopeptidase FAP): > 100 µM
IC50 (Prothrombin): > 100 µM
IC50 (Dipeptidyl peptidase 9): 86.3 µM
IC50 (Prolyl endopeptidase): 62.1 µM
IC50 (Dipeptidyl peptidase 4 [13]): 4.87 µM
Activity (RAW264.7 [7]): Non-Toxic
Activity (RPTEC): Non-Toxic
inhibition (Dipeptidyl peptidase 4 [8]): Active
inhibition (Dipeptidyl peptidase 4 [9]): Active
Activity (RAW264.7 [4]): Active
Activity (RAW264.7 [5]): Active
Activity (RAW264.7 [6]): Active
Ratio IC50 (Homo sapiens [14]): > 12.7
Ratio IC50 (Homo sapiens [15]): > 12.7

Second part, led by results:

IC50 (Dipeptidyl peptidase 4 [1]): 21.2 µM
Compound: CCOc1ccc(C(=O)/C=C/c2cc(Cl)c(O)cc2OC)cc1

IC50 (Dipeptidyl peptidase 4 [1]): 49.2 µM
Compound: COc1cc(OC)c(/C=C/C(=O)c2ccc(O)cc2)cc1Cl

IC50 (Dipeptidyl peptidase 4 [1]): 42.9 µM
Compound: CCCCOc1ccc(C(=O)/C=C/c2cc(Cl)c(O)cc2OC)cc1

IC50 (Dipeptidyl peptidase 4 [1]): 9.87 µM
Ki (Dipeptidyl peptidase 4 [2]): 3.18 µM
Compound: COc1cc(O)c(Cl)cc1/C=C/C(=O)c1ccc(Br)cc1

IC50 (Dipeptidyl peptidase 4 [1]): 7.16 µM
Ki (Dipeptidyl peptidase 4 [2]): 6.57 µM
half-life at 10 µM [3]: 7.1 min
inhibition (Dipeptidyl peptidase 4 [8]): Active
inhibition (Dipeptidyl peptidase 4 [9]): Active
Compound: COc1cc(O)c(Cl)cc1/C=C/C(=O)c1ccc(O)cc1
Activity (RAW264.7 [7]): Non-Toxic
Activity (RPTEC): Non-Toxic
Activity (RAW264.7 [4]): Active
Activity (RAW264.7 [5]): Active
Activity (RAW264.7 [6]): Active

IC50 (Dipeptidyl peptidase 4 [1]): 34 µM
Compound: COc1ccc(C(=O)/C=C/c2cc(Br)c(O)cc2OC)cc1

IC50 (Dipeptidyl peptidase 4 [1]): 11 µM
Compound: COc1ccc(C(=O)/C=C/c2cc(Cl)c(O)cc2OC)cc1

IC50 (Dipeptidyl peptidase 4 [1]): 11.4 µM
Compound: CCCOc1ccc(C(=O)/C=C/c2cc(Cl)c(O)cc2OC)cc1

IC50 (Dipeptidyl peptidase 4 [1]): > 100 µM
Compound: COc1ccc(C(=O)/C=C/c2cc(Cl)c(OC)cc2OC)cc1
